For assay [1], the target named is T1, steroid sulfatase (Homo sapiens, UniProt P08842).
T1 sequence (P08842 22-583): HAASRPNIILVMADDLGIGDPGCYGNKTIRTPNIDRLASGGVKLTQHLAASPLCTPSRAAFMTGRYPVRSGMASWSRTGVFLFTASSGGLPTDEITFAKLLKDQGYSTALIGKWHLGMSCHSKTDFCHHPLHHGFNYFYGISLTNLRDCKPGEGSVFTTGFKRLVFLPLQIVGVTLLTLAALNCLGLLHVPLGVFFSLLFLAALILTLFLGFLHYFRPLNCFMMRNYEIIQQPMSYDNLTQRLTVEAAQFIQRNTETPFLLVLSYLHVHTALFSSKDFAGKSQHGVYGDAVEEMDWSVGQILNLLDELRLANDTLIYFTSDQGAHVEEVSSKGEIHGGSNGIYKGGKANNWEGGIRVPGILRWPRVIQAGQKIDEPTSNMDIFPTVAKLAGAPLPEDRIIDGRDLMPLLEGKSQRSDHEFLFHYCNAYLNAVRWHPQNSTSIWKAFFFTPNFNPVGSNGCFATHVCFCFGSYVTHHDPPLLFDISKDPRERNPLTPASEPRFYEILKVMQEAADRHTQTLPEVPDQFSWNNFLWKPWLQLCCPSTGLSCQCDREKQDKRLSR
Conditions: background statement; cited from earlier work.

For assay [2] the following is noted: background statement; cited from earlier work.
Assay [3] has as its target T2, steroid sulfatase (Rattus norvegicus, UniProt P15589).
T2 construct: The livers and uteri were separately minced with scissors and suspended in cooled PBS containing 250 mM sucrose; from tissue; host or cells: liver and uterus of ovariectomized female SD rats (2,000 x g supernatant of homogenate)
T2 sequence (P15589 20-577): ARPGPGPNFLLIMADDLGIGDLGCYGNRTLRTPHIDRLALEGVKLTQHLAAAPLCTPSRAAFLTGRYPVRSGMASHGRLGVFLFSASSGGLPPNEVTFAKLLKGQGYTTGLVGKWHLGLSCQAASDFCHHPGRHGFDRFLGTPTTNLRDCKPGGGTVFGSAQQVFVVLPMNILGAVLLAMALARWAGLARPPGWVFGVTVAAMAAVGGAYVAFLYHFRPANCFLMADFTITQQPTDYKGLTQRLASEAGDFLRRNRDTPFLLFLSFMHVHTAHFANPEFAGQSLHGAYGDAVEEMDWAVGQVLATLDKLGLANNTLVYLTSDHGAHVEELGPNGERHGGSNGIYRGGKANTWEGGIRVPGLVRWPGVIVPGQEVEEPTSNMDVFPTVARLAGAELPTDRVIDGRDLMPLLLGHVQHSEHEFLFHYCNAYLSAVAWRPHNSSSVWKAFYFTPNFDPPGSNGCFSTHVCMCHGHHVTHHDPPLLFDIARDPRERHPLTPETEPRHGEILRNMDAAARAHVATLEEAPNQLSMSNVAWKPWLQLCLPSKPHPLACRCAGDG
Briefly: Steroid sulfatase inhibitory activity (in vivo), liver and uterus of ovariectomized rats after oral dosing. The following applies: 0.5 mg/kg p.o. once a day for seven days, ovariectomized female SD rats. Here is the method:
(2) Measurement of Steroid Sulfatase Inhibitory Activity (in vivo):
To six/group of female SD rats which had undergone ovariectomy, the test compounds as each suspended in 0.5% polyoxyethylene (20) sorbitan monooleate (Tween 80) were orally administered once a day for seven days. On the next day of the last administration, the rats were sacrificed under ether anesthesia. The bodies were anatomized and their livers and uteri were extracted, which were washed with cooled PBS and stored below −70° C. The livers and uteri were separately minced with scissors and suspended in cooled PBS containing 250 mM sucrose. Each of the suspensions was homogenized with a homogenizer under cooling with ice, from which neclei and cell debris were eliminated by centrifugation at 2,000×g for 20 minutes (4° C.). Protein concentration of each of the supernatant was measured by Bradford's method (Anal. Biochem., 72, 248-254 (1976)).
To 2-200 μg of the supernatant protein mass and 50 μL of 60 μM estrone-3-sulfate containing about 100 nCi of [6,7-^3H]estrone-3-sulfate (purchased from Perkin Elmer Life Sciences, Boston, Mass., U.S.A.; specific activity, 40-60 Ci/mmol), PBS was added to make the total amount 150 μL, followed by incubation at 37° C. for 30 minutes. After the incubation, the amount of hydrolyzed [6,7-^3H]estrone-3-sulfate was calculated by a method similar to the in vitro measurement in (1) above. Also steroid sulfatase activity per mg of the protein was calculated, and from the amount of the hydrolyzed [6,7-^3H]estrone-3-sulfate and the calculated steroid sulfatase activity per mg of the protein, the tested compound's steroid sulfatase inhibitory rate was determined.

The subject of assay [4] is MCF-7 cells. As to the kind of experiment: MCF-7 cell proliferation measurement (MTT) for examining estrogenic activity. Format: cell-based, human. The following applies: 4 days, 570 nm. As to the method:
(3) MCF-7 Cell Proliferation Measurement for Examining Estrogenic Activity:
Stimulation of MCF-7 cell proliferation induced by estrogenic activity of each test compound was measured.
MCF-7 cells were cultured in 10% fetal bovine serum (FBS)-containing RPMI 1640 medium which was free from Phenol Red, using a 75 cm^2 culture flask. Then the medium was changed to RPMI 1640 medium containing 10% of FBS from which emdogenous steroid had been eliminated by charcoal treatment but containing no Phenol Red. Renewing the medium every two days, the culture was continued for 4 days. By this step estrogen was removed from the MCF-7 cells.
The MCF-7 cells were seeded on 96-well plates, 2,000 cells per well, and cultured for 24 hours to immobilize the cells on the plate. After the cell immobilization, the medium in each well was changed to RPMI 1640 medium containing 10^−6M test compound and 10% of charcoal-treated FBS but containing no Phenol Red, and the culture was continued for further 4 days, during which the medium was changed every day to one newly prepared before the use. Also control wells to which no test compound was added were provided.
After the end of the culture, the cell proliferation was measured by MTT (3-(4,5-dimethylthiazol-2-yl)-2,5-diphenyl-2H-tetrazolium bromide; Sigma-Aldrich Japan Co.) method. That is, an MTT solution as dissolved in PBS at a concentration of 5 mg/mL was added to the 96-well plate accommodating the cells, at a rate of 10 μL/well, followed by 2 hours' incubation at 37° C. After the end of the incubation, the medium was removed and the formazan which was taken into the cells and changed was dissolved with 100 μL of dimethylsulfoxide. Absorbance of the formazan was measured at wavelength 570 nm, using a microplate reader, subtracting the 630 nm background.
As shown by the Table 3, absorbance values of the wells to which the test compounds were added were invariably less than 150% of the absorbance of the control well, and it was confirmed that the test compounds were free of estrogenic activity.

Assay [5] addresses T1, steroid sulfatase. Briefly: Steroid sulfatase inhibitory activity (in vitro), microsomal fraction of MCF-7 cells, [3H]estrone-3-sulfate hydrolysis. Format: biochemical. Further details: microsomal fraction of MCF-7 human breast cancer cells was used; endogenous in cells; host or cells: MCF-7 human breast cancer cells (microsomal fraction). The following applies: MCF-7 microsomal fraction, 37° C., 30 minutes; for Inhibitory rate (%) (10^−6 M): 10^−6 M test compound; for Inhibitory rate (%) (10^−7 M): 10^−7 M test compound. Here is the method: (1) Measurement of Steroid Sulfatase Inhibitory Activity (in vitro):
As the source of steroid sulfatase enzyme, microsomal fraction of MCF-7 human breast cancer cells was used.
To phosphate buffered saline (PBS), one of the test compounds, the microsomal fraction and 50 μL of 60 μM estrone-3-sulfate containing about 100 nCi of [6,7-^3H]estrone-3-sulfate (purchased from Perkin Elmer Life Sciences, Boston, Mass., USA; specific activity, 40-60 Ci/mmol) were added to make the total amount of the reaction system 150 μL, which was incubated at 37° C. for 30 minutes. After the incubation, 50 μL of PBS containing about 2 nCi of [4-^14C] estrone (purchased from Perkin Elmer Life Sciences, Boston, Mass., USA; specific activity 45-60 mCi/mmol) was added and stirred. Further 800 μL of toluene was added, and the whole system was thoroughly shaken for 30 seconds, followed by centrifugation at 2,000×g for 10 minutes to separate the acqueous phase from the organic phase. A part (400 μL) of the organic phase was taken and measured of its ^3H and ^14C contents with scintillation spectrometer.
The mass of hydrolyzed [6,7-^3H]estrone-3-sulfate was calculated from the count number of the obtained ^3H (as corrected regarding the amount of the used organic phase and the recovered amount of [4-^14C]estrone) and the specific activity of the substrate ([6,7-^3H]estrone-3-sulfate) to determine the steroid sulfatase inhibitory rate of each test compound.

With `Cc1cc(=O)oc2cc(OS(N)(=O)=O)ccc12` [COUMATE, 4-methylcoumarin-7-sulfamate], in assay [1], the “steroid sulfatase inhibiting activity” value was “low level of steroid sulfatase inhibiting activity”. Further, in assay [2], the estrogenic activity entry is “free from estrogenic activity”.
As to `NS(=O)(=O)Oc1ccc(N2CCN(CCc3ccc(Cl)cc3)CC2)cc1F` [Example 22, 4-[4-[2-(4-chlorophenyl)ethyl]piperazin-1-yl]-2-fluorophenyl-O-sulfamate], in assay [3], the “Inhibitiory rate (0.5 mg/kg, p.o., %) Liver” value is 99.85% and the “Inhibitiory rate (0.5 mg/kg, p.o., %) Uterus” value amounted to 99.98%. Besides, in assay [4], the “Absorbance relative to that of the control well (10^−6 M, %)” value (from here on “Absorbance relative to that … (10^−6 M, %)”) is recorded as 74.6%. In addition, in assay [5], the “Inhibitory rate (%) (10^−6 M)” value was 97.3% and the “Inhibitory rate (%) (10^−7 M)” value is reported as 85.0%.
The like results for `NS(=O)(=O)Oc1cc(F)c(N2CCC(CCCc3ccccc3)CC2)cc1F` [Example 37, 2,5-difluoro-4-[4-(3-phenylpropyl)piperidino]phenyl-O-sulfamate] were, in that order, 99.85%, 99.95%, 89.5%, 98.9% and 93.6%.
`NS(=O)(=O)Oc1cc(F)c(N2CCN(CCc3ccccc3)CC2)cc1F` [Example 43, 2,5-difluoro-4-(4-phenethylpiperazin-1-yl)phenyl-O-sulfamate]: in assay [3], the “Inhibitiory rate (0.5 mg/kg, p.o., %) Liver” value came to 99.90% and the “Inhibitiory rate (0.5 mg/kg, p.o., %) Uterus” value is 99.98%. Besides, the “Absorbance relative to that … (10^−6 M, %)” value in assay [4] is 101.1%. Besides, in assay [5], the “Inhibitory rate (%) (10^−6 M)” value is recorded as 98.5% and the “Inhibitory rate (%) (10^−7 M)” value turned out to be 87.0%.
Taken in the same sequence, the figures for `NS(=O)(=O)Oc1cc(F)c(N2CCN(CCCC3CCCCC3)CC2)cc1F` [Example 45, 4-[4-(3-cyclohexylpropyl)piperazin-1-yl]-2,5-difluorophenyl-O-sulfamate] were 99.09%, 99.32%, 91.4%, 98.5% and 88.6%.
For `CC(C)(C)c1ccc(C(=O)CCCN2CCN(c3cc(F)c(OS(N)(=O)=O)cc3F)CC2)cc1` [Example 48, 4-[4-[4-(4-tert-butylphenyl)-4-oxobutyl]piperazin-1-yl]-2,5-difluorophenyl-O-sulfamate], in assay [4], the “Absorbance relative to that … (10^−6 M, %)” value is listed as 112.0%. In assay [5], the “Inhibitory rate (%) (10^−6 M)” value turned out to be 100.0% and the “Inhibitory rate (%) (10^−7 M)” value stood at 95.9%.
The like results for `CCCCCCCCS(=O)(=O)N1CCN(c2cc(F)c(OS(N)(=O)=O)cc2F)CC1` [Example 52, 2,5-difluoro-4-[4-(octylsulfonyl)piperazin-1-yl]phenyl-O-sulfamate] were, in that order, 112.0%, 100.0% and 99.3%.
Taken in the same sequence, the figures for `NS(=O)(=O)Oc1cc(F)c(N2CCN(S(=O)(=O)c3ccc(Cl)cc3)CC2)cc1F` [Example 55, 4-[4-(4-chlorophenylsulfonyl)piperazin-1-yl]-2,5-difluorophenyl-O-sulfamate] were 64.6%, 100.0% and 97.5%.
For `NS(=O)(=O)Oc1cc(F)c(N2CCN(S(=O)(=O)Cc3ccc(Cl)cc3)CC2)cc1F` [Example 56, 4-[(4-chlorobenzylsulfonyl)piperazin-1-yl]-2,5-difluorophenyl-O-sulfamate], in assay [3], the “Inhibitiory rate (0.5 mg/kg, p.o., %) Liver” value is 99.37% and the “Inhibitiory rate (0.5 mg/kg, p.o., %) Uterus” value is 99.81%. Further, in assay [5], the “Inhibitory rate (%) (10^−6 M)” value was 99.9% and the “Inhibitory rate (%) (10^−7 M)” value stood at 98.4%.
Regarding `NS(=O)(=O)Oc1cc(F)c(N2CCC(CCCc3ccccc3)CC2)cc1F.O=S(=O)(O)c1ccccc1` [Example 59, 2,5-difluoro-4-[4-(3-phenylpropyl)piperidino]phenyl-O-sulfamate benzenesulfonate], in assay [3], the “Inhibitiory rate (0.5 mg/kg, p.o., %) Liver” value was found to be 100.00% and the “Inhibitiory rate (0.5 mg/kg, p.o., %) Uterus” value was found to be 100.00%. Further, the “Absorbance relative to that … (10^−6 M, %)” value in assay [4] is 105.3%. In assay [5], the “Inhibitory rate (%) (10^−6 M)” value is given as 99.0% and the “Inhibitory rate (%) (10^−7 M)” value is given as 95.4%.

(Values after patent US7449466B2, “Cyclic aminophenyl sulfamate derivative” (Aska Pharmaceutical Co., Ltd., priority 2003, dated 2008).)
